PMC9508125, “The evolutionary advantage of an aromatic clamp in plant family 3 glycoside exo-hydrolases” (Nature Communications, 2022)
Positions count from the first letter of the chain named. Each block holds one compound with its values, some of them ahead of it.

Columns and labels:
Test in all cases: Relative rates of hydrolysis of poly-, oligosaccharides and aryl-glycosides
Type in all cases: biochemical
[1] = molecular target: T1, HvExoI W286F mutant (Hordeum vulgare, UniProt Q9XEI3, W311F); conditions: substance is the substrate, nd = activity not detected
T1 sequence (Q9XEI3 26-630 W311F): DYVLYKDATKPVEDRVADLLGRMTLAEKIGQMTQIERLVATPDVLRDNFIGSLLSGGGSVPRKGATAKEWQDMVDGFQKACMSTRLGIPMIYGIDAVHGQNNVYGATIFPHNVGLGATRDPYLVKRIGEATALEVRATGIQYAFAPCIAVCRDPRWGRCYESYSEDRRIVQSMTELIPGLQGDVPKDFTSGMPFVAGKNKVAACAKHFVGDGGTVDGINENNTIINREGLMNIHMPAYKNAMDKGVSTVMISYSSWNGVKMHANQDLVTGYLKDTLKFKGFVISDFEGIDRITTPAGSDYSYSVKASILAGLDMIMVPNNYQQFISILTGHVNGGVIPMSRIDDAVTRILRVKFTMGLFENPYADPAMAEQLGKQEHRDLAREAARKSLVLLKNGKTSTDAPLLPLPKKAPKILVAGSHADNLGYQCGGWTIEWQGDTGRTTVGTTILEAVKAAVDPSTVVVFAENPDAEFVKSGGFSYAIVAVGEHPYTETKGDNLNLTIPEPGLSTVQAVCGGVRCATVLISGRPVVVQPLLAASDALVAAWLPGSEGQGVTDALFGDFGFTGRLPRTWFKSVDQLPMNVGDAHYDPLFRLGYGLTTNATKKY
Method in brief: (§1)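 Near-homogeneous HvExoI at 50 pmoles was used to compare hydrolysis rates across β-linked glycosides. Kinetic parameters were obtained by weighted nonlinear Michaelis-Menten regression.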

[2] = molecular target: T2, HvExoI W434A mutant (Hordeum vulgare, UniProt Q9XEI3, W459A); conditions: substance is the substrate, nd = activity not detected
T2 sequence (Q9XEI3 26-630 W459A): T1 sequence (Q9XEI3 26-630 W311F) with F286W, W434A
Method in brief: as §1

[3] = molecular target: T3, HvExoI W434H mutant (Hordeum vulgare, UniProt Q9XEI3, W459H); conditions: substance is the substrate
T3 sequence (Q9XEI3 26-630 W459H): T1 sequence (Q9XEI3 26-630 W311F) with F286W, W434H
Method in brief: as §1

[4] = molecular target: T4, HvExoI W434Y mutant (Hordeum vulgare, UniProt Q9XEI3, W459Y); conditions: substance is the substrate, nd = activity not detected
T4 sequence (Q9XEI3 26-630 W459Y): T1 sequence (Q9XEI3 26-630 W311F) with F286W, W434Y
Method in brief: as §1

[5] = molecular target: WT HvExoI (Hordeum vulgare, UniProt Q9XEI3); conditions: substance is the substrate, HvExoI at 50 pmoles, nd = activity not detected
Chain of WT HvExoI (Q9XEI3 entry or part of it): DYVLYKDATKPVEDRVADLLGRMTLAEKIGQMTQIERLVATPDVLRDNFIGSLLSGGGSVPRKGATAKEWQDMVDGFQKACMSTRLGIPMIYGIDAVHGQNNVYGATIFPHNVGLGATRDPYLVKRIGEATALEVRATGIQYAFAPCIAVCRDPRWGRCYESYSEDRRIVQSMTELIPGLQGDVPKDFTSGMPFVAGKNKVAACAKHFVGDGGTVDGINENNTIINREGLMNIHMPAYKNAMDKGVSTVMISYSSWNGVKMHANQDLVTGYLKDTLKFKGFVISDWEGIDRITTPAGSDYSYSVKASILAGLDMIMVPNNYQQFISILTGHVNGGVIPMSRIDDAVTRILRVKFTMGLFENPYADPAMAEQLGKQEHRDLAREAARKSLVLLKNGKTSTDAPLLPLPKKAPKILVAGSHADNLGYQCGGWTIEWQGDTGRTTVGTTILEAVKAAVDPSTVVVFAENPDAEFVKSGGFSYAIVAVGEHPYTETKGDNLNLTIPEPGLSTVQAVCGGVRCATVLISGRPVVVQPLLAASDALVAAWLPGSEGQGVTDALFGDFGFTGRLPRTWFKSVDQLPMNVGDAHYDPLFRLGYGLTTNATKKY
Method in brief: as §1

Compound: O=[N+]([O-])c1ccc(O[C@@H]2O[C@H](CO)[C@@H](O)[C@H](O)[C@H]2O)cc1 [4NP-Glc, 4-nitrophenyl β-D-glucopyranoside]
Activity (relative rate of hydrolysis) [1]: 0.9 ± 0.01 μmole/min per mg protein
Activity (relative rate of hydrolysis) [2]: 6.1 ± 0.1 μmole/min per mg protein
Activity (relative rate of hydrolysis) [3]: 2.4 ± 0.2 μmole/min per mg protein
Activity (relative rate of hydrolysis) [4]: 1.2 ± 0.1 μmole/min per mg protein
Activity (relative rate of hydrolysis) [5]: 12.4 ± 0.8 μmole/min per mg protein

Compound: OC[C@H]1O[C@@H](O[C@H]2[C@H](O)[C@@H](O)[C@H](O[C@H]3[C@H](O)[C@@H](O)[C@H](O[C@H]4[C@H](O)[C@@H](O)[C@H](O[C@H]5[C@H](O)[C@@H](O)[C@H](O[C@H]6[C@H](O)[C@@H](O)C(O)O[C@@H]6CO)O[C@@H]5CO)O[C@@H]4CO)O[C@@H]3CO)O[C@@H]2CO)[C@H](O)[C@@H](O)[C@@H]1O (stereo partly shown) [Cellohexaose]
Activity (relative rate of hydrolysis) [1]: 0.1 ± 0.01 μmole/min per mg protein
Activity (relative rate of hydrolysis) [3]: 0.3 ± 0.02 μmole/min per mg protein
Activity (relative rate of hydrolysis) [4]: 0.1 ± 0.01 μmole/min per mg protein
Activity (relative rate of hydrolysis) [5]: 9.1 ± 0.2 μmole/min per mg protein

Compound: OC[C@H]1O[C@@H](O[C@H]2[C@H](O)[C@@H](O)[C@H](O[C@H]3[C@H](O)[C@@H](O)[C@H](O[C@H]4[C@H](O)[C@@H](O)[C@H](O[C@H]5[C@H](O)[C@@H](O)C(O)O[C@@H]5CO)O[C@@H]4CO)O[C@@H]3CO)O[C@@H]2CO)[C@H](O)[C@@H](O)[C@@H]1O (stereo partly shown) [Cellopentaose]
Activity (relative rate of hydrolysis) [1]: 0.1 ± 0.01 μmole/min per mg protein
Activity (relative rate of hydrolysis) [3]: 0.2 ± 0.01 μmole/min per mg protein
Activity (relative rate of hydrolysis) [4]: 0.1 ± 0.002 μmole/min per mg protein
Activity (relative rate of hydrolysis) [5]: 8.4 ± 0.4 μmole/min per mg protein

Compound: OC[C@H]1O[C@@H](O[C@H]2[C@H](O)[C@@H](O)[C@H](O[C@H]3[C@H](O)[C@@H](O)[C@H](O[C@H]4[C@H](O)[C@@H](O)C(O)O[C@@H]4CO)O[C@@H]3CO)O[C@@H]2CO)[C@H](O)[C@@H](O)[C@@H]1O (stereo partly shown) [Cellotetraose]
Activity (relative rate of hydrolysis) [1]: 0.1 ± 0.01 μmole/min per mg protein
Activity (relative rate of hydrolysis) [3]: 0.2 ± 0.01 μmole/min per mg protein
Activity (relative rate of hydrolysis) [4]: 0.1 ± 0.01 μmole/min per mg protein
Activity (relative rate of hydrolysis) [5]: 8.5 ± 0.7 μmole/min per mg protein

Compound: OC[C@H]1O[C@@H](O[C@H]2[C@H](O)[C@@H](O)[C@H](O[C@H]3[C@H](O)[C@@H](O)C(O)O[C@@H]3CO)O[C@@H]2CO)[C@H](O)[C@@H](O)[C@@H]1O (stereo partly shown) [Cellotriose]
Activity (relative rate of hydrolysis) [1]: 0.1 ± 0.01 μmole/min per mg protein
Activity (relative rate of hydrolysis) [3]: 0.3 ± 0.03 μmole/min per mg protein
Activity (relative rate of hydrolysis) [4]: 0.1 ± 0.02 μmole/min per mg protein
Activity (relative rate of hydrolysis) [5]: 8.8 ± 0.4 μmole/min per mg protein

Compound: OC[C@H]1O[C@@H](O[C@@H]2[C@@H](O)[C@H](O[C@@H]3[C@@H](O)[C@H](O[C@@H]4[C@@H](O)[C@H](O[C@@H]5[C@@H](O)[C@H](O[C@@H]6[C@@H](O)[C@H](O[C@@H]7[C@@H](O)[C@H](O)O[C@H](CO)[C@H]7O)O[C@H](CO)[C@H]6O)O[C@H](CO)[C@H]5O)O[C@H](CO)[C@H]4O)O[C@H](CO)[C@H]3O)O[C@H](CO)[C@H]2O)[C@H](O)[C@@H](O)[C@@H]1O [Laminariheptaose]
Activity (relative rate of hydrolysis) [1]: 1.2 ± 0.1 μmole/min per mg protein
Activity (relative rate of hydrolysis) [2]: 1.0 ± 0.1 μmole/min per mg protein
Activity (relative rate of hydrolysis) [3]: 1.6 ± 0.1 μmole/min per mg protein
Activity (relative rate of hydrolysis) [4]: 1.3 ± 0.1 μmole/min per mg protein
Activity (relative rate of hydrolysis) [5]: 11.0 ± 0.8 μmole/min per mg protein

Compound: OC[C@H]1O[C@@H](O[C@@H]2[C@@H](O)[C@H](O[C@@H]3[C@@H](O)[C@H](O[C@@H]4[C@@H](O)[C@H](O[C@@H]5[C@@H](O)[C@H](O[C@H]6[C@H](O)[C@@H](CO)OC(O)[C@@H]6O)O[C@H](CO)[C@H]5O)O[C@H](CO)[C@H]4O)O[C@H](CO)[C@H]3O)O[C@H](CO)[C@H]2O)[C@H](O)[C@@H](O)[C@@H]1O (stereo partly shown) [Laminarihexaose]
Activity (relative rate of hydrolysis) [1]: 1.1 ± 0.03 μmole/min per mg protein
Activity (relative rate of hydrolysis) [2]: 1.0 ± 0.02 μmole/min per mg protein
Activity (relative rate of hydrolysis) [3]: 1.5 ± 0.1 μmole/min per mg protein
Activity (relative rate of hydrolysis) [4]: 1.4 ± 0.1 μmole/min per mg protein
Activity (relative rate of hydrolysis) [5]: 12.2 ± 0.1 μmole/min per mg protein

Compound: OC[C@H]1O[C@@H](O[C@H]2C(O)O[C@H](CO)[C@@H](O)[C@@H]2O)[C@H](O)[C@@H](O)[C@@H]1O (stereo partly shown) [Sophorose]
Activity (relative rate of hydrolysis) [1]: 0.6 ± 0.01 μmole/min per mg protein
Activity (relative rate of hydrolysis) [3]: 0.6 ± 0.1 μmole/min per mg protein
Activity (relative rate of hydrolysis) [4]: 0.8 ± 0.1 μmole/min per mg protein
Activity (relative rate of hydrolysis) [5]: 6.0 ± 0.1 μmole/min per mg protein

Activity (relative rate of hydrolysis) [1]: 0.1 ± 0.01 μmole/min per mg protein
Activity (relative rate of hydrolysis) [3]: 0.1 ± 0.01 μmole/min per mg protein
Activity (relative rate of hydrolysis) [4]: 0.1 ± 0.001 μmole/min per mg protein
Activity (relative rate of hydrolysis) [5]: 4.6 ± 0.2 μmole/min per mg protein
Compound: Cellobiose

Compound: Gentiobiose
Activity (relative rate of hydrolysis) [1]: 0.4 ± 0.03 μmole/min per mg protein
Activity (relative rate of hydrolysis) [3]: 0.3 ± 0.02 μmole/min per mg protein
Activity (relative rate of hydrolysis) [4]: 0.1 ± 0.01 μmole/min per mg protein
Activity (relative rate of hydrolysis) [5]: 4.7 ± 0.4 μmole/min per mg protein
